# ChEMBL document CHEMBL1681715, “4-aminopyrimidine-5-carbaldehyde oximes as potent VEGFR-2 inhibitors. Part II” (Bioorg Med Chem Lett, 2011)
# Calls of active or inactive are those of the source. No cut-off for these calls is given here.
# Experiments:
# [1] = molecular target: Vascular endothelial growth factor receptor 2 (Homo sapiens, UniProt P35968)
# [2] = molecular target: Vascular endothelial growth factor receptor 1 (Homo sapiens, UniProt P17948); test: Inhibition of FLT1
# [3] = molecular target: T1, Receptor-type tyrosine-protein kinase FLT3 (Homo sapiens, UniProt P36888); test: Inhibition of FLT3
# T1 sequence (P36888 whole entry): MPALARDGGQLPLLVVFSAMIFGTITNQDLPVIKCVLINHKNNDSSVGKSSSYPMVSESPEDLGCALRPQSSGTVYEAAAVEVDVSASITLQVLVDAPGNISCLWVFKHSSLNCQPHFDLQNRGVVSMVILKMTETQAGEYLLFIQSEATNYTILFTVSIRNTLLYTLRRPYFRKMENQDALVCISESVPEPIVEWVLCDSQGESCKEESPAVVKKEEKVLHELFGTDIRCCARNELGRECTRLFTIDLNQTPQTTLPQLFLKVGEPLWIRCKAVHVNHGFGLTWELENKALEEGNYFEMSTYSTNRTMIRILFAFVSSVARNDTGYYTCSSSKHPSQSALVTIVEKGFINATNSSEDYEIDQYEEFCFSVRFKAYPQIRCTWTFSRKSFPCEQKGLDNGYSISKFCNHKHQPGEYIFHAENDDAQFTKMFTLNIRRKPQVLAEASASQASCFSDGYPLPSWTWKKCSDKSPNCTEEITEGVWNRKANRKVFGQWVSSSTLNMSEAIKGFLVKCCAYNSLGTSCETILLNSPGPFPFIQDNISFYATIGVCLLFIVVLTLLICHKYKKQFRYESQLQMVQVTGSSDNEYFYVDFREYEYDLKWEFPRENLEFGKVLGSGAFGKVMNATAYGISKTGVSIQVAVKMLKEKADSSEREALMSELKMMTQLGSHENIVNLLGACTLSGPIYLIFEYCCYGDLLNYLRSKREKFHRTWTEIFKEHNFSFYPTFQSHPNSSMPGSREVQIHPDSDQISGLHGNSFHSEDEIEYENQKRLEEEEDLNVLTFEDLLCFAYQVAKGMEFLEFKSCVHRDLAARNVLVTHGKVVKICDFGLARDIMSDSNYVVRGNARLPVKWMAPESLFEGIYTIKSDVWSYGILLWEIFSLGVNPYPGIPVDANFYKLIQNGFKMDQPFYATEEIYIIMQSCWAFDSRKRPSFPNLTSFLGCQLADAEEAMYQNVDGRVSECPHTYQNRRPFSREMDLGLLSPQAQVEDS
# [4] = molecular target: Mast/stem cell growth factor receptor Kit (Homo sapiens, UniProt P10721); test: Inhibition of KIT
# Sequence of Mast/stem cell growth factor receptor Kit (P10721 whole entry): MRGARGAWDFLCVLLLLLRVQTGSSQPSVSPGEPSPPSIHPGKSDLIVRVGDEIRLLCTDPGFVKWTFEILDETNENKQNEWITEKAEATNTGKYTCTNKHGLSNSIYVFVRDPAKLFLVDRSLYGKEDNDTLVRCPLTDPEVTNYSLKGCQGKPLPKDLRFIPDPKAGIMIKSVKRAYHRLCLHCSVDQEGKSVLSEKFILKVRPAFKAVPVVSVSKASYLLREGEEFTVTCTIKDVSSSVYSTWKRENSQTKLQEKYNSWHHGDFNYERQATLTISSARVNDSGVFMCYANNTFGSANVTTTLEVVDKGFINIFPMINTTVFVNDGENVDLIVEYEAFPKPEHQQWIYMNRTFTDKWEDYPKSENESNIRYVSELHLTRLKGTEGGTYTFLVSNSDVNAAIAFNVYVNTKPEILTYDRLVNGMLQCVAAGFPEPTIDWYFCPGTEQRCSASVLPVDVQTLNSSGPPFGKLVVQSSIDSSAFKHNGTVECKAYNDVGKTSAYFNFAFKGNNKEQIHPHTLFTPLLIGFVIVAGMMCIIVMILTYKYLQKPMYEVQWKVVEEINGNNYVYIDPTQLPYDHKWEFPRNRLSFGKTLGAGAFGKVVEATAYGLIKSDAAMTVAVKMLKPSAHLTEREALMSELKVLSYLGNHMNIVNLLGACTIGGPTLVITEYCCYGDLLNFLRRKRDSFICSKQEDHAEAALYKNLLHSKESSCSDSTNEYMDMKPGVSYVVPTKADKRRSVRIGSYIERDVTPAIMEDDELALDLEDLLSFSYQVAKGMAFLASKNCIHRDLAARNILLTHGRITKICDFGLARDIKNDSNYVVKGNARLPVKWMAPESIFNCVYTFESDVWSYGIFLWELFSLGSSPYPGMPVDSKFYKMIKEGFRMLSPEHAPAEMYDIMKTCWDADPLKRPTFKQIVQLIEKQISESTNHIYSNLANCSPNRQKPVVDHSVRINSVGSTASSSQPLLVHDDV
# [5] = Cmax in BALB/c mouse at 2 mg/kg, iv; format: ADME, organism-based; parameters: dose 2 mg/kg, route intravenous; conditions: in vivo
# Mus musculus [6] = test: AUC in BALB/c mouse at 2 mg/kg, iv; format: ADME, organism-based, Plasma; parameters: dose 2 mg/kg, route intravenous; conditions: in vivo
# [7] = Volume of distribution at steady state in BALB/c mouse at 2 mg/kg, iv; format: ADME, organism-based; parameters: dose 2 mg/kg, route intravenous; conditions: in vivo, read-out: Vdss
# [8] = Half life in BALB/c mouse at 2 mg/kg, iv; format: ADME, organism-based; parameters: dose 2 mg/kg, route intravenous; conditions: in vivo
# [9] = Clearance in BALB/c mouse at 2 mg/kg, iv; format: ADME, organism-based; parameters: dose 2 mg/kg, route intravenous; conditions: in vivo
# [10] = Cmax in BALB/c mouse at 10 mg/kg, po; format: ADME, organism-based; parameters: dose 10 mg/kg, route oral; conditions: in vivo
# Mus musculus [11] = test: AUC in BALB/c mouse at 10 mg/kg, po; format: ADME, organism-based, Plasma; parameters: dose 10 mg/kg, route oral; conditions: in vivo
# [12] = Half life in BALB/c mouse at 10 mg/kg, po; format: ADME, organism-based; parameters: dose 10 mg/kg, route oral; conditions: in vivo
# Mus musculus [13] = test: Oral bioavailability in BALB/c mouse at 10 mg/kg; format: ADME, organism-based; conditions: in vivo
# [14] = Cmax in rat at 2 mg/kg, iv; format: ADME, organism-based; parameters: dose 2 mg/kg, route intravenous; conditions: in vivo
# Rattus norvegicus [15] = test: AUC in rat at 2 mg/kg, iv; format: ADME, organism-based, Plasma; parameters: dose 2 mg/kg, route intravenous; conditions: in vivo
# [16] = Volume of distribution at steady state in rat at 2 mg/kg, iv; format: ADME, organism-based; parameters: dose 2 mg/kg, route intravenous; conditions: in vivo, read-out: Vdss
# [17] = Half life in rat at 2 mg/kg, iv; format: ADME, organism-based; parameters: dose 2 mg/kg, route intravenous; conditions: in vivo
# [18] = Clearance in rat at 2 mg/kg, iv; format: ADME, organism-based; parameters: dose 2 mg/kg, route intravenous; conditions: in vivo
# [19] = Cmax in rat at 10 mg/kg, po; format: ADME, organism-based; parameters: dose 10 mg/kg, route oral; conditions: in vivo
# [20] = Half life in rat at 10 mg/kg, po; format: ADME, organism-based; parameters: dose 10 mg/kg, route oral; conditions: in vivo
# Rattus norvegicus [21] = test: Oral bioavailability in rat at 10 mg/kg; format: ADME, organism-based; conditions: in vivo
# A-375 [22] = test: Antiproliferative activity against human A375 cells at 100 uM; format: functional, cell-based
# HCT-116 [23] = test: Antiproliferative activity against human HCT116 cells at 100 uM; format: functional, cell-based
# A-431 [24] = test: Antitumor activity against human A431 cells xenografted po dosed mouse model measured after 10 to 14 days; format: functional, organism-based
# A-431 [25] = test: Antitumor activity against human A431 cells xenografted mouse model measured at 100 to 200 mg/kg, po after 10 to 14 days; format: functional
# HCT-116 [26] = test: Antitumor activity against human HCT116 cells xenografted po dosed mouse model measured after 10 to 14 days; format: functional, organism-based
# HCT-116 [27] = test: Antitumor activity against human HCT116 cells xenografted mouse model measured at 100 to 200 mg/kg, po after 10 to 14 days; format: functional
# Mus musculus [28] = test: Toxicity in mouse assessed as body weight at 100 to 200 mg/kg, po after 24 days; format: organism-based; parameters: dose 100-200 mg/kg, route oral; conditions: in vivo, 576 h
# A-375 [29] = test: Antitumor activity against human A375 cells xenografted mouse model assessed as growth inhibition at 100 mg/kg, po; format: functional
# Sequence of Vascular endothelial growth factor receptor 2 (P35968 whole entry): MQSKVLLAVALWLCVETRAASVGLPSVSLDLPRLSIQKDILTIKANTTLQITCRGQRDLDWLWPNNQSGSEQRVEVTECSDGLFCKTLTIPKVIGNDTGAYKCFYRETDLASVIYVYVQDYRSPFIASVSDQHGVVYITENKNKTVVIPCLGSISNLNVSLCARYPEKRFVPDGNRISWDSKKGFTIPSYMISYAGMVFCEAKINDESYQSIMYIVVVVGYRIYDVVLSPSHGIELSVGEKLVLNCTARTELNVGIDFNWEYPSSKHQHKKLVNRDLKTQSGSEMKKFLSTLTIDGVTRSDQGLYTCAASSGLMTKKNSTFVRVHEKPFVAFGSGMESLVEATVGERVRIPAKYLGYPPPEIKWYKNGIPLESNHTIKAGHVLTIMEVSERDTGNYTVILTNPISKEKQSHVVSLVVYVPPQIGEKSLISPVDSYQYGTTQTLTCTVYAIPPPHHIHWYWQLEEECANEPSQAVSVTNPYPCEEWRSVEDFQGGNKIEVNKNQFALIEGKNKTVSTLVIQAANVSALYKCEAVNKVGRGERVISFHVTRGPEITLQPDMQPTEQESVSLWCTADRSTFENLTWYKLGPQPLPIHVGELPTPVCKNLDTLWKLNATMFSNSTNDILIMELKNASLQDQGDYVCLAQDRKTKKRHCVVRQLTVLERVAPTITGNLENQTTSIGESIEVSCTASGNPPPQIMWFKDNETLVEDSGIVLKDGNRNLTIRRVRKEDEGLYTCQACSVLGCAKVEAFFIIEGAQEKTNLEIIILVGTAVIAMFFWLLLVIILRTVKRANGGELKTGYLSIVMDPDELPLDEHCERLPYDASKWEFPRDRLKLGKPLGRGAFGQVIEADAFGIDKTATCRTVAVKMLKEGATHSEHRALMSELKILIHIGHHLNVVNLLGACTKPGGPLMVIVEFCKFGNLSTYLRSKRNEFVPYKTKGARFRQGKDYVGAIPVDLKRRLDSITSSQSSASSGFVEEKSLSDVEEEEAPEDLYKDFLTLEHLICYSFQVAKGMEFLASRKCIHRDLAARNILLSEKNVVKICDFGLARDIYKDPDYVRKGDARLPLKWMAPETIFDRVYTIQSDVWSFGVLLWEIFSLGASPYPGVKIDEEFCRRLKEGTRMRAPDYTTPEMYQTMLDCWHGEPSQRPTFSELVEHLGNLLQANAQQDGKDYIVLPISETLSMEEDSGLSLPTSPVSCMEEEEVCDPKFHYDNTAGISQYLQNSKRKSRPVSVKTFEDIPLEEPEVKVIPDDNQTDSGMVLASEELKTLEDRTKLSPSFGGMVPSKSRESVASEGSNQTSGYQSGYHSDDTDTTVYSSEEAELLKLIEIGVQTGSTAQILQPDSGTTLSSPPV
# Sequence of Vascular endothelial growth factor receptor 1 (P17948 whole entry): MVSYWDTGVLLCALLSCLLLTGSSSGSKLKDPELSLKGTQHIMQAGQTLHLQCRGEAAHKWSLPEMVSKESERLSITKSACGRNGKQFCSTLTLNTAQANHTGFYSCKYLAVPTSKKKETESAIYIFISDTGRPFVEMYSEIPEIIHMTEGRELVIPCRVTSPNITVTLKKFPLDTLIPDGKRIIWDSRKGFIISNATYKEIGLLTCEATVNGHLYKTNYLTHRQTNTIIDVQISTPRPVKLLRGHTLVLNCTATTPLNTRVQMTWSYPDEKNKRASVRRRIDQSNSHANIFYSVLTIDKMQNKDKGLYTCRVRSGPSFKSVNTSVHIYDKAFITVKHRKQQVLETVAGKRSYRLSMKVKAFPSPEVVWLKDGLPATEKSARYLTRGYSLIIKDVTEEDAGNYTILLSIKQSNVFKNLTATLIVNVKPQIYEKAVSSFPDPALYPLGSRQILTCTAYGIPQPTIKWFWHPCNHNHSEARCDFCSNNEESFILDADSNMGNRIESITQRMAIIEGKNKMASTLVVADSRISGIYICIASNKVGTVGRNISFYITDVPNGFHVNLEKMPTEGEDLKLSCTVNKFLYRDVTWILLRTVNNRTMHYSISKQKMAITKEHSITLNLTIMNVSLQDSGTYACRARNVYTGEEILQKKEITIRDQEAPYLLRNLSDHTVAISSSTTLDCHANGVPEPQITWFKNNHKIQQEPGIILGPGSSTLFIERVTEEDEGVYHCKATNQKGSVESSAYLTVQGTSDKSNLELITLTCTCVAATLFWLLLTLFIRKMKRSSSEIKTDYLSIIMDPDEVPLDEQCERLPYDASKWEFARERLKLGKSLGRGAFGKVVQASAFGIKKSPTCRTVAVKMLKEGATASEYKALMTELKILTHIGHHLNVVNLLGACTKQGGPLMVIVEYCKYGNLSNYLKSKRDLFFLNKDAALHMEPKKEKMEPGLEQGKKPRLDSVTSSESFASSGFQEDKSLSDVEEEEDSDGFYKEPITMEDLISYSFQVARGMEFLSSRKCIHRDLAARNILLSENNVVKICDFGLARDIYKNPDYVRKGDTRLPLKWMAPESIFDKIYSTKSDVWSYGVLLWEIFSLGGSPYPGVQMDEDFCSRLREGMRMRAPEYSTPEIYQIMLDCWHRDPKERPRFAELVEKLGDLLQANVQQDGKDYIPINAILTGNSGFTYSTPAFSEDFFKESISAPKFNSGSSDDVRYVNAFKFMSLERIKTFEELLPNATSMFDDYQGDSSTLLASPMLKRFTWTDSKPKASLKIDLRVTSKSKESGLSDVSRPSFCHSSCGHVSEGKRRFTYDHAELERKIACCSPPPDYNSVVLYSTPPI
smiles,measurement,setting,value
CO/N=C/c1c(N)ncnc1Oc1ccc(NC(=O)Nc2cc(C)on2)c(Cl)c1,IC50,[1],2 nM
CCCNC(=O)Nc1ccc(Oc2ncnc(N)c2/C=N/OC)cc1Cl,IC50,[1],28 nM
CNC(=O)Nc1ccc(Oc2ncnc(N)c2/C=N/OC)c(F)c1,IC50,[1],142 nM
CO/N=C/c1c(N)ncnc1Oc1ccc(NC(=O)Nc2nc(C)c(C)s2)c(Cl)c1,IC50,[1],2 nM
CO/N=C/c1c(N)ncnc1Oc1ccc(NC(=O)NC2CC2)c(Cl)c1,IC50,[1],29 nM
CNC(=O)Nc1ccc(Oc2ncnc(N)c2/C=N/OC)c(Br)c1,IC50,[1],> 100000 nM
CO/N=C/c1c(N)ncnc1Oc1ccc(NC(=O)Nc2ccc(F)cc2F)c(Cl)c1,IC50,[1],3 nM
CO/N=C/c1c(N)ncnc1Oc1ccc(NC(=O)NCCO)c(Cl)c1,IC50,[1],168 nM
CO/N=C/c1c(N)ncnc1Oc1ccc(NC(=O)OC)cc1Cl,IC50,[1],152 nM
CO/N=C/c1c(N)ncnc1Oc1ccc(NC(=O)Nc2ccc(F)cc2)c(Cl)c1,IC50,[1],2.8 nM
CCNC(=O)Nc1ccc(Oc2ncnc(N)c2/C=N/OC)c(C)c1,IC50,[1],180 nM
CO/N=C/c1c(N)ncnc1Oc1ccc(NC(=O)NCCCCN2CCCC2)c(Cl)c1,IC50,[1],759 nM
CO/N=C/c1c(N)ncnc1Oc1ccc(NC(=O)Nc2nccs2)c(Cl)c1,IC50,[1],3.4 nM
CO/N=C/c1c(N)ncnc1Oc1ccc(NC(=O)Nc2ccccc2F)c(Cl)c1,IC50,[1],3.3 nM
CO/N=C/c1c(N)ncnc1Oc1ccc(NC(=O)Nc2cccnc2)c(Cl)c1,IC50,[1],10 nM
CO/N=C/c1c(N)ncnc1Oc1ccc(NC(=O)Nc2ccccn2)c(Cl)c1,IC50,[1],34 nM
CO/N=C/c1c(N)ncnc1Oc1ccc(NC(C)=O)cc1Cl,IC50,[1],2210 nM
CO/N=C/c1c(N)ncnc1Oc1ccc(NC(=O)Nc2ccccc2Cl)c(Cl)c1,IC50,[1],2.6 nM
CO/N=C/c1c(N)ncnc1Oc1ccc(NC(=O)NCCCO)c(Cl)c1,IC50,[1],400 nM
CO/N=C/c1c(N)ncnc1Oc1ccc(NC(=O)Nc2ccccc2OC)c(Cl)c1,IC50,[1],2.5 nM
CO/N=C/c1c(N)ncnc1Oc1ccc(NC(=O)Nc2ccncc2)c(Cl)c1,IC50,[1],11 nM
CNC(=O)Nc1ccc(Oc2ncnc(N)c2/C=N/OC)cc1Cl,IC50,[1],25 nM
CNC(=O)Cc1ccc(Oc2ncnc(N)c2/C=N/OC)cc1,IC50,[1],19700 nM
CCNC(=O)Nc1ccc(Oc2ncnc(N)c2/C=N/OC)cc1Cl,IC50,[2],4420 nM
same,IC50,[3],4800 nM
same,IC50,[4],513 nM
same,Cmax,[5],2990 ng/mL
same,AUC,Mus musculus [6],6114 ng·h/mL
same,Vd,[7],0.7 L/kg
same,half-life,[8],2.8 h
same,clearance,[9],5.6 mL/min/kg
same,Cmax,[10],2790 ng/mL
same,AUC,Mus musculus [11],12305 ng·h/mL
same,half-life,[12],2.1 h
same,F,Mus musculus [13],16%
same,Cmax,[14],5400 ng/mL
same,AUC,Rattus norvegicus [15],4799 ng·h/mL
same,Vd,[16],0.4 L/kg
same,half-life,[17],0.7 h
same,clearance,[18],7.4 mL/min/kg
same,Cmax,[19],1030 ng/mL
same,half-life,[20],10 h
same,F,Rattus norvegicus [21],30%
same,Activity,A-375 [22],inactive
same,Activity,HCT-116 [23],inactive
same,Activity,A-431 [24],Dose-dependent effect
same,inhibition (INH),A-431 [25],90%
same,Activity,HCT-116 [26],Dose-dependent effect
same,inhibition (INH),HCT-116 [27],90%
same,Activity,Mus musculus [28],Non-toxic
same,inhibition in vivo at 100 mg/kg,A-375 [29],90%
CO/N=C/c1c(N)ncnc1Oc1ccc(NC(=O)Nc2cccc(F)c2)c(Cl)c1,IC50,[1],1.7 nM
CO/N=C/c1c(N)ncnc1Oc1ccc(NC(=O)NC(C)C)c(Cl)c1,IC50,[1],73 nM
CCNC(=O)Nc1ccc(Oc2ncnc(N)c2/C=N/OC)cc1,IC50,[1],142 nM
CO/N=C/c1c(N)ncnc1Oc1ccc(NC(=O)Nc2ccccc2C)c(Cl)c1,IC50,[1],7.9 nM
CCNC(=O)Oc1ccc(Oc2ncnc(N)c2/C=N/OC)cc1,IC50,[1],> 100000 nM
CO/N=C/c1c(N)ncnc1Oc1ccc(NC(=O)Nc2ccccc2)c(Cl)c1,IC50,[1],3 nM
CO/N=C/c1c(N)ncnc1Oc1ccc(NC(=O)NCc2ccc(F)cc2F)c(Cl)c1,IC50,[1],10.3 nM
CO/N=C/c1c(N)ncnc1Oc1ccc(NC(=O)NCCN(C)C)c(Cl)c1,IC50,[1],285 nM
CO/N=C/c1c(N)ncnc1Oc1ccc(NC(=O)NC2CCCCC2)c(Cl)c1,IC50,[1],6.5 nM
